Source: patent US20040247696A1, “Methods of using electron active compounds for managing conditions afflicting mammals” (priority 2001, published 2004)

Tests used:
salmonella = assay: AOAC culture test, salmonella-contaminated aqueous solutions; assay type: cell-based; conditions: ten minutes exposure
Procedure: Unless otherwise indicated, antimicrobial evaluations of the various fluorinator compounds tested were performed versus control samples in cultures in accordance with the protocol as set forth in AOAC (15th) 1990:965:13 at colony densities indicated in the examples.
Aqueous solutions were prepared having a salmonella contamination at a cell density of about 500,000 cfu/mL. Two solutions of XeF2 were prepared: one as a 1% solution in 85% phosphoric acid stabilizer, and a second solution containing no stabilizer. The materials were cultured versus controls at concentrations of about 2 ppm and about 4 ppm XeF2 and at a pH of about 9.

coliform = assay: AOAC culture test, coliform-contaminated water; assay type: cell-based; conditions: about 2 PPM XeF2 + about 20 PPM KPS, pH about 7, 37.4 cfu/mL
Procedure: These and other aspects of the present invention may be more fully understood with reference to the following examples, which are merely illustrative of the preferred embodiments of the present invention, and are not to be construed as limiting the invention, the scope of which is defined by the appended claims. Unless otherwise indicated, antimicrobial evaluations of the various fluorinator compounds tested were performed versus control samples in cultures in accordance with the protocol as set forth in AOAC (15th) 1990:965:13 at colony densities indicated in the examples.
Contaminated water was prepared and measured to have AOAC coliform counts averaging 37.4 colony forming units per milliliter (cfu/mL). The water was treated by first adding crystal potassium monopersulfate (KPS) stabilizer, commercially available from E.I. DuPont de Nemours & Co. Corp. as OXONE®, and xenon difluoride (XeF2). The concentration in solution of the KPS and XeF2 was about 20 PPM and about 2 PPM respectively, and the pH of the treated solution was about 7.

[1] = animals not prone to silver allergies
Excerpt: Preferred routes of administration include topically and application to mucosa. Application can be made, for example, digitally or using a suitable applicator.

SMILES	salmonella inhibition (salmonella; about 2 ppm XeF2, pH about 9, about 500,000 cfu/mL)	salmonella inhibition (salmonella; about 4 ppm XeF2, pH about 9, about 500,000 cfu/mL)	coliform inhibition (coliform; 5 minutes exposure)	coliform inhibition (coliform; 10 minutes exposure)	Ill effects or irritation on application to the skin [1]
F[Xe]F [XeF2, xenon difluoride]	about 13.2%	about 96.4%	about 73%	about 77%	
[Ag+].[Ag+].[Ag+].[Ag+].[O-2].[O-2].[O-2].[O-2] [Ag4O4, tetrasilver tetroxide]					without any ill effects or evidence of irritation
